The record followed here is patent US10335409B2 (priority 2012, dated 2019).

Read-outs that look alike come from different tables or passages of the source.

Type in all cases: cell-based, hepatitis C virus
Test [1] concerns genotype 4a (ED43) stable HCV replicon in Huh-7-derived cells. Briefly: Stable subgenomic HCV replicon EC50, genotype 4a (Renilla luciferase). The settings on record: Hepatitis C virus, 72 h, read-out: EC50 4A RLUC. The gist of the method: (§1)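 Compounds, three-fold diluted, were applied to Huh-7-derived cells harbouring luciferase replicons (genotype 1a H77, 1b Con1, 2a JFH-1, 4a ED43, with strain-specific adaptive mutations). Seventy-two hours later, intracellular replication was gauged by Renilla luciferase activity and EC50 derived by regression.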
A general note: A replicon is a self-replicating genome or part of one, used to study replication in cells.

Test [2] relates to genotype 2a (JFH-1) stable HCV replicon in Huh-7-derived cells. Kind of test: Stable subgenomic HCV replicon EC50, genotype 2a (Renilla luciferase). The settings on record: Hepatitis C virus, stable replicon genotype 2a, 72 h, read-out: EC50 2A RLUC. The gist of the method: as §1
Test [3] concerns genotype 1a (H77) wild type transient HCV replicon in Huh-7-derived cells. Kind of test: Transient-transfected HCV replicon EC50, genotype 1a wild type. Particulars: Hepatitis C virus, 72 h, read-out: EC50 1A WT.
Test [4] relates to genotype 3a (S52) wild type transient HCV replicon in Huh-7-derived cells. Kind of test: Transient-transfected HCV replicon EC50, genotype 3a wild type. The settings on record: Hepatitis C virus, 72 h, read-out: EC50 3A WT.
For test [5], the system named is genotype 1a (H77) stable HCV replicon in Huh-7-derived cells. Kind of test: Stable subgenomic HCV replicon EC50, genotype 1a (Renilla luciferase). Particulars: Hepatitis C virus, stable replicon genotype 1a, 72 h, read-out: EC50 1A RLUC. Put shortly:
as §1

The subject of test [6] is genotype 1b (Con1) stable HCV replicon in Huh-7-derived cells. Briefly: Stable subgenomic HCV replicon EC50, genotype 1b (Renilla luciferase). The settings on record: Hepatitis C virus, stable replicon genotype 1b, 72 h, read-out: EC50 1B RLUC. The gist of the method:
as §1

Test [7] deals with genotype 1b (Con1) wild type transient HCV replicon in Huh-7-derived cells. Kind of test: Transient-transfected HCV replicon EC50, genotype 1b wild type. The settings on record: Hepatitis C virus, 72 h, read-out: EC50 1B WT.
Test [8] concerns genotype 1b NS3/4a protease inhibitor resistant variant D168A transient HCV replicon in Huh-7-derived cells. Briefly: Transient-transfected HCV replicon EC50, genotype 1b D168A. The settings on record: Hepatitis C virus, 72 h, read-out: EC50 1B D168A, transient-transfected replicon genotype 1b D168A resistant variant, 72 h.
Test [9] deals with genotype 1a NS3/4a protease inhibitor resistant variant R155K transient HCV replicon in Huh-7-derived cells. Briefly: Transient-transfected HCV replicon EC50, genotype 1a R155K. Particulars: Hepatitis C virus, 72 h, read-out: EC50 1A R155K, transient-transfected replicon genotype 1a R155K resistant variant, 72 h.
In test [10] the test system is genotype 3a (S52) stable HCV replicon in Huh-7-derived cells. Kind of test: Stable subgenomic HCV replicon EC50, genotype 3a (Renilla luciferase). Particulars: Hepatitis C virus, 72 h, read-out: EC50 3A RLUC.
Where [11] appears, read: transient-transfected replicon genotype 1a wild type.
Setting [12] is: transient-transfected replicon genotype 3a wild type.
The mark [13] stands for this setting: transient-transfected replicon genotype 1b wild type.

What is called EC50 is the concentration at which the effect is half-maximal. Turning to `CCC[C@@H]1[C@@H]2CN(C(=O)[C@H](C(C)(C)C)NC(=O)O[C@@H]3C[C@H]3CCCCC(F)(F)c3nc4ccc(OC)cc4nc3O2)[C@@H]1C(=O)N[C@]1(C(=O)NS(=O)(=O)C2(C)CC2)C[C@H]1C(F)F` [Example 65, (1aR,5S,8S,9S,10R,22aR)-5-tert-butyl-N-[(1R,2R)-2-(difluoromethyl)-1-{[(1-methylcyclopropyl)sulfonyl]carbamoyl}cyclopropyl]-18,18-difluoro-14-methoxy-3,6-dioxo-9-propyl-1,1a,3,4,5,6,9,10,18,19,20,21,22,22a-tetradecahydro-8H-7,10-methanocyclopropa[18,19][1,10,3,6]dioxadiazacyclononadecino[11,12-b]quinoxaline-8-carboxamide], the 50% effective concentration (EC50) was 8.1 nM in test [1]; 7.7 nM in test [2]; 9.4 nM in test [3]; 17 nM in test [4]; 12 nM in test [5]; 8.4 nM in test [6]. The EC50 in test [7] amounted to 6.4 nM; in test [8], 11 nM; in test [9] it was 8.1 nM; in test [10], 30 nM.

As for `CC[C@@H]1[C@@H]2CN(C(=O)[C@H](C(C)(C)C)NC(=O)O[C@]3(C)CCC[C@H]3CCCCCc3nc4ccc(OC)cc4nc3O2)[C@@H]1C(=O)N[C@]1(C(=O)NS(=O)(=O)C2(C)CC2)C[C@H]1CCF` [Example 52, (3aR,7S,10S,11S,12R,24aR)-7-tert-butyl-11-ethyl-N-[(1R,2S)-2-(2-fluoroethyl)-1-{[(1-methylcyclopropyl)sulfonyl]carbamoyl}cyclopropyl]-16-methoxy-3a-methyl-5,8-dioxo-1,2,3,3a,5,6,7,8,11,12,20,21,22,23,24,24a-hexadecahydro-10H-9,12-methanocyclopenta[18,19][1,10,3,6]dioxadiazacyclononadecino[11,12-b]quinoxaline-10-carboxamide], the EC50 in [1] was 161 nM; in test [2] it was 380 nM; in test [3] (setting [11]) it was 150 nM; in test [4] (setting [12]), 538 nM; in test [5], 195 nM; in test [6], 245 nM. Besides, the EC50 is 161 nM in test [7] (setting [13]), 887 nM in [8], 516 nM in test [9] and 2310 nM in test [10].

As for `COc1ccc2nc3c(nc2c1)O[C@H]1CN(C(=O)[C@H](C(C)(C)C)NC(=O)O[C@H]2CC4CC(C4)[C@@H]2CCCCC3)[C@H](C(=O)N[C@]2(C(=O)NS(=O)(=O)C3CC3)C[C@H]2C(F)F)[C@@H]1C` [Example 72, (4aS,8S,11S,12S,13R,25aS)-8-tert-butyl-N-[(1R,2R)-1-[(cyclopropylsulfonyl)carbamoyl]-2-(difluoromethyl)cyclopropyl]-17-methoxy-12-methyl-6,9-dioxo-2,3,4,4a,6,7,8,9,12,13,21,22,23,24,25,25a-hexadecahydro-1H,11H-1,3:10,13-dimethanoquinoxalino[2,3-k][1,10,3,6]benzodioxadiazacyclononadecine-11-carboxamide], the EC50 came out at 383 nM in test [1]; 740 nM in [2]; 600 nM in test [3] (setting [11]); 642 nM in test [4] (setting [12]); 365 nM in [5]; 300 nM in test [6]. Besides, the EC50 is 165 nM in test [7] (setting [13]), 687 nM in [8], 227 nM in [9] and 1820 nM in [10].

For the compound `CC[C@@H]1[C@@H]2CN(C(=O)[C@H](C(C)(C)C)NC(=O)O[C@@H]3C[C@H]3CCCCC(F)(F)c3nc4ccc(OC(F)F)cc4nc3O2)[C@@H]1C(=O)N[C@]1(C(=O)NS(=O)(=O)C2(C)CC2)C[C@H]1C(F)F` [Example 85, (1aR,5S,8S,9S,10R,22aR)-5-tert-butyl-14-(difluoromethoxy)-N-[(1R,2R)-2-(difluoromethyl)-1-{[(1-methylcyclopropyl)sulfonyl]carbamoyl}cyclopropyl]-9-ethyl-18,18-difluoro-3,6-dioxo-1,1a,3,4,5,6,9,10,18,19,20,21,22,22a-tetradecahydro-8H-7,10-methanocyclopropa[18,19][1,10,3,6]dioxadiazacyclononadecino[11,12-b]quinoxaline-8-carboxamide], the EC50 turned out to be 9.2 nM in test [1]; 7.7 nM in test [2]; 12 nM in test [3] (setting [11]); 101 nM in test [4] (setting [12]); 16 nM in test [5]; 17 nM in test [6]. Also, the half-maximal effective concentration (EC50) in [7] (setting [13]) was 7 nM; in test [8], 57 nM; in test [9], 22 nM; in test [10], 304 nM.

Take `COc1ccc2nc3c(nc2c1)O[C@H]1CN(C(=O)[C@H](C(C)(C)C)NC(=O)O[C@@H]2C[C@@H]4C[C@@H]4[C@H]2CCCCC3)[C@H](C(=O)N[C@]2(C(=O)NS(=O)(=O)C3(C)CC3)C[C@H]2CC(F)F)[C@@H]1C` [Example 58, (1aS,2aR,6S,9S,10S,11R,23aR,23bS)-6-tert-butyl-N-[(1R,2S)-2-(2,2-difluoroethyl)-1-{[(1-methylcyclopropyl)sulfonyl]carbamoyl}cyclopropyl]-15-methoxy-10-methyl-4,7-dioxo-1a,2,2a,4,5,6,7,10,11,19,20,21,22,23,23a,23b-hexadecahydro-1H,9H-8,11-methanocyclopropa[4′,5′]cyclopenta[1′,2′:18,19][1,10,3,6]dioxadiazacyclononadecino[11,12-b]quinoxaline-9-carboxamide]: the EC50 in test [1] is 12 nM; in [2], 12 nM; in test [3] it was 12 nM; in [4] it was 38 nM; in test [5] it was 12 nM; in test [6] it was 9.7 nM. The concentration giving a half-maximal response (EC50) in test [7] was 14 nM; in test [8], 23 nM; in test [9], 18 nM; in [10], 134 nM.

`CC[C@@H]1[C@@H]2CN(C(=O)[C@H](C(C)(C)C)NC(=O)O[C@@H]3C[C@H]3CCCCC(F)(F)c3nc4ccccc4nc3O2)[C@@H]1C(=O)N[C@]1(C(=O)NS(=O)(=O)C2CC2)C[C@H]1C(F)F` [Example 53, (1aR,5S,8S,9S,10R,22aR)-5-tert-butyl-N-[(1R,2R)-1-[(cyclopropylsulfonyl)carbamoyl]-2-(difluoromethyl)cyclopropyl]-9-ethyl-18,18-difluoro-3,6-dioxo-1,1a,3,4,5,6,9,10,18,19,20,21,22,22a-tetradecahydro-8H-7,10-methanocyclopropa[18,19][1,10,3,6]dioxadiazacyclononadecino[11,12-b]quinoxaline-8-carboxamide]: the concentration for a half-maximal effect (EC50) in test [1] worked out at 2.8 nM; in test [2], 13 nM; in test [3] (setting [11]) it was 5.3 nM; in test [4] (setting [12]), 15 nM; in test [5], 51 nM; in test [6] it was 7.7 nM. The EC50 in test [7] (setting [13]) turned out to be 2 nM; in [8], 11 nM; in test [9], 5.6 nM; in test [10] it was 18 nM.
